Assay results reported in patent US20210267731A1, “COMPOSITION FOR TREATING AND PREVENTING GINGIVOPERIODONTITIS OR PERI-IMPLANTITIS, AND INTERDENTAL BRUSH COATED WITH SAME” (NIBEC CO., LTD., priority 2018, published 2021).
Ends that are not written are not given here.

Experiments:
Prevotella intermedia = experiment: Antimicrobial experiment, liquid dilution method, colony count; assay type: cell-based
Experimental: In order to determine the effect of the composition containing the antimicrobial peptide, an antimicrobial experiment was conducted according to the liquid dilution method. Prevotella intermedia, which is a bacterium causative of periodontal disease, was cultured in Tryptic soy broth. The above strain was cultured until the absorbance at 620 nm reached 1, and then the cells were collected and used in the experiment. The cells were diluted with PBS, bacteria were plated at 10^5-10^7/mL on a tryptic soy agar (TSA) plate, and incubated at 37° C. for 24 hours. In order to measure the antimicrobial activity of the peptides using a liquid dilution method, 1 ml of distilled water was added to a microtube, 10 µl of diluted bacterial solution was added thereto and 50 μl of the product was plated on a plate medium which was used as a control group.
After treatment with 50 μg/ml and 100 μg/ml of the peptide of SEQ ID NO: […] and 100 μg/ml of the peptide of SEQ ID NO: 2 at 37° C. for 1 hour, 50 μl of each of the product was plated and the number of colonies that formed was counted. In addition, the antimicrobial activity of the composition of Example 1, a composition containing the composition of Example 1 and the peptide of SEQ ID NO: 1, and a composition containing the composition of Example 1 and the peptide of SEQ ID NO: 2 was measured in the same manner as above.

[1] = Test of lipopolysaccharide removal effect of nonionic surfactants; conditions: compared with other nonionic surfactants (polyoxyethylene, Tween series, span series)
Excerpt: Octyl phenol ethoxylate (C14H22O (C2H4O)n) is a nonionic surfactant, has a hydrophilic polyethylene oxide group and a hydrophobic 4-(1,1,3,3-tetramethylbutyl)-phenyl group, and is widely used as a detergent in the biochemical field. In immunostaining, octyl phenol ethoxylate permeabilizes the cell membrane at a concentration of 0.1 to 0.5%, and permeabilizes the cell wall of bacteria at a concentration of 1%. In the present invention, octyl phenol ethoxylate has an effect of removing lipopolysaccharide (LPS). Other nonionic surfactants widely used in this technical field include polyoxyethylene, Tween series, span series and the like.

Substance | antimicrobial activity (Prevotella intermedia; among peptides of SEQ ID NO: 1 to SEQ ID NO: 4) | antimicrobial activity of peptide (colonies formed) (Prevotella intermedia; peptide at 100 μg/ml, 37° C., 1 hour, FIG. 6) | lipopolysaccharide removal effect [1]
GKSST RGRKS CRRKK-NH2 (GKSSTRGRKSCRRKK-NH2) [peptide of SEQ ID NO: 2, antimicrobial peptide] | best antimicrobial activity | the highest | 
octyl phenol ethoxylate |  |  | greatest lipopolysaccharide removal effect
